From article PMC3865801 (Journal of Medicinal Chemistry, 2013)
Like-named read-outs stand apart in the source and are kept apart here.

Columns and labels:
[1] = biological target: T1, purified recombinant perforin (Mus musculus, UniProt P10820); assay: cell-based; type: cell-based; conditions: lysis of Jurkat cells by purified recombinant perforin, 51Cr release, 0.1% BSA; average of at least three determinations; read-out: inhibition of Jurkat cell lysis, IC50
T1 sequence (P10820 21-554): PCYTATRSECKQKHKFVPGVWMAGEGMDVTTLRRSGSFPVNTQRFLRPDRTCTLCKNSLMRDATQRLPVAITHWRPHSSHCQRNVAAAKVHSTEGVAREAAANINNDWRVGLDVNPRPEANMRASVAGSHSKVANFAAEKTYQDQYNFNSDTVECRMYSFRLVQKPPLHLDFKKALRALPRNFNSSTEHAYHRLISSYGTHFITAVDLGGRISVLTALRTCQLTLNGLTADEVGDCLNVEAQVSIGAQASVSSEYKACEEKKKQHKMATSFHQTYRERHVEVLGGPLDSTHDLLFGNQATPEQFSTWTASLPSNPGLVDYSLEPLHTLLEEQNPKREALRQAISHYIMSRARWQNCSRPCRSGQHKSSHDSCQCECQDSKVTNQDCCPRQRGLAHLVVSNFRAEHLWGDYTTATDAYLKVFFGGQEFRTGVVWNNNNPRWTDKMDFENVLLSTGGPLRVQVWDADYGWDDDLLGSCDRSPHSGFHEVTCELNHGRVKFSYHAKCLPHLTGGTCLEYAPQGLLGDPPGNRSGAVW
Protocol: The ability of the compounds to inhibit the lysis of nucleated (Jurkat T lymphoma) cells in the presence of 0.1% BSA was measured by release of ^51Cr label. Jurkat target cells were labeled by incubation in medium with 100 μCi ^51Cr for 1 h. The cells were then washed three times to remove unincorporated isotope and resuspended at 1 × 10^5 cells per milliliter in RPMI buffer supplemented with 0.1% BSA. […] Each data point was performed in triplicate, and an IC50 was calculated from the range of concentrations described above.

[2] = biological target: T2, perforin produced by an intact NK cell line (KHYG-1) (Homo sapiens, UniProt P14222); assay: KHYG-1 cytotoxicity assay: perforin-induced lysis of K562 target cells co-incubated with KHYG-1 NK cells; type: cell-based; conditions: for inhibition at 5 µM: KHYG-1
T2 construct: the perforin is delivered by a functional NK cell; endogenous in cells; host or cells: KHYG-1 NK cells (K562 target cells)
T2 sequence (P14222 22-555): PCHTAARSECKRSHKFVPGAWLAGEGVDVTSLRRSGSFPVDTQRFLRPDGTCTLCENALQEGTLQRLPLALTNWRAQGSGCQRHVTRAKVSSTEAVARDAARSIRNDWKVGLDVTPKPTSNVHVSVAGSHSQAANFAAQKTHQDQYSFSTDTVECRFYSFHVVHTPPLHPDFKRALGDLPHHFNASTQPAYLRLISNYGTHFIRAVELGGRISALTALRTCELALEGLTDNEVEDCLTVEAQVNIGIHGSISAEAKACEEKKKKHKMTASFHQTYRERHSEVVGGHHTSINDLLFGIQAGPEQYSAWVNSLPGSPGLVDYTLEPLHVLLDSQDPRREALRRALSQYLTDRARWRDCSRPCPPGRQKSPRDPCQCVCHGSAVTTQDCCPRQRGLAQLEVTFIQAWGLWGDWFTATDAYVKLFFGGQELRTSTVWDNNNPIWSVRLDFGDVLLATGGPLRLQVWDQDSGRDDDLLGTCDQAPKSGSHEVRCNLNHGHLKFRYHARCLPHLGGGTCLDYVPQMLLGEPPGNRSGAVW
Protocol: KHYG-1 cells were washed and resuspended in RPMI + 0.1% BSA at 4 × 10^5 cells/mL, and an amount of 50 μL of KHYG-1 cells was dispensed to each well of a 96-well V-bottom plate. RPMI (50 μL) + 0.1% BSA or 10% (final concentration) of serum was added to each well. Then test compounds were added to KHYG-1 cells at various concentrations up to 20 μM and incubated at room temperature for 20 min. 1 × 10^6 K562 target cells were labeled with 75 μCi ^51Cr in 200 μL of RPMI for 90 min at 37 °C. Cells were washed as described above and resuspended in 5 mL of RPMI + 0.1% BSA. […] The percentage of specific cytotoxicity was calculated using the following formula: [drawing 4] and expressed as the mean of triplicate assays ± standard error of the mean.

[3] = Toxicity to KHYG-1 NK cells (Trypan blue exclusion); type: cell-based, human; conditions: human, viability after 24 h; for viability at 4 h, 20 µM: 4 h exposure, Trypan blue, ± SEM
Protocol: (§1) The toxicity assay was carried out in exactly the same manner as the killing assay above, but instead of adding the labeled K562 target cells, 100 μL of RPMI 0.1% BSA was added. Cells were incubated for 4 h at 37 °C and then washed ×3 in RPMI + 0.1% BSA. […] Trypan blue was added to each well. Viable (clear) cells and total (clear + blue) cells were counted, and the percentage of viable cells was calculated compared to DMSO treated cell control (% viability).

[4] = Solubility in SPR running buffer; type: physicochemical; conditions: HEPES buffered saline running buffer with 5% DMSO; sodium salts, HEPES running buffer containing 5% DMSO
Protocol: Binding experiments with surface immobilized wild-type perforin monomers on a S-series CM5 sensor chip (GE Healthcare Life Sciences) were carried out using a Biacore T200 SPR machine (GE Healthcare Life Sciences). […] The initial and running buffers were made from a 10× stock solution of HEPES buffered saline (HBS). 10× HBS (50 mL) was diluted to 500 mL with water and filtered through a 0.22 μm filter (initial buffer). This initial buffer (380 mL) was added to DMSO (20 mL) to prepare the 5% DMSO running buffer. Stock solutions (2.5 mM) of compound were prepared in 100% DMSO. […] A solvent correction was run before and after the injections to account for differences in DMSO concentrations between buffer and analyte solutions.

[5] = Aqueous solubility of parent compound and sodium salt
KHYG-1 NK cells = assay: Toxicity to KHYG-1 NK cells (Trypan blue exclusion); type: cell-based, human; conditions: 5 μM, viability after 24 h
Protocol: as §1

[6] = biological target: T3, perforin delivered by primary human natural killer cells to HeLa cells (Homo sapiens, UniProt P14222); assay: Time-lapse microscopy of the cytotoxic immunological synapse (primary NK cells and HeLa targets); type: cell-based; conditions: 20 μM, primary human NK cells, HeLa targets
T3 construct: degranulation and the release of perforin into the synaptic cleft; endogenous in cells; host or cells: primary human NK cells from peripheral blood of four donors (HeLa target cells)
T3 sequence (P14222 22-555): T2 sequence (P14222 22-555)
Protocol: Time-lapse microscopy and image analysis were performed as described previously.[42] In brief, primary human natural killer cells were isolated from the peripheral blood of four unrelated donors using negative selection, as described in the above reference. […] All experiments were performed at 37 °C/5% CO2.

Compound | IC50 [1] [nM] | inhibition at 20 µM ([2]; 20 μM, 10% mouse serum, K562 targets, ± SEM, read-out: KHYG-1 inhibition (% at 20 μM), 10% serum) [%] | inhibition at 20 µM ([2]; 20 μM, no serum, K562 targets, vs untreated control, ± SEM, read-out: KHYG-1 inhibition (% at 20 μM), no serum) [%] | viability at 4 h, 20 µM ([3]; KHYG-1 NK cells) [%] | solubility [4] [µM] | solubility ([5]; aqueous medium (not further specified)) [µg/mL] | inhibition at 5 µM ([2]; 10% mouse serum, read-out: KHYG-1 inhibition, 10% serum) [%] | inhibition at 5 µM ([2]; no serum, read-out: KHYG-1 inhibition, no serum) [%] | inhibition at 20 µM ([2]; read-out: KHYG-1 inhibition (% at 20 μM), 10% serum) [%] | inhibition at 20 µM ([2]; read-out: KHYG-1 inhibition (% at 20 μM), no serum) [%] | viability at 4 h, 5 µM ([3]; KHYG-1 NK cells, 5 μM) [%] | viability at 4 h, 20 µM [3] [%] | KHYG-1 viability (KHYG-1 NK cells) | synapses in which formation of the perforin pore was blocked [6] [%] | killer cells that delivered functional perforin to the target ([6]; DMSO control: every cell) [%] | solubility [5] [µg/mL]
CC1c2cc(-c3ccc(/C=C4/NC(=S)NC4=O)s3)ccc2C(=O)N1C (stereo not drawn) [compound 135, (E,Z)-2,3-Dimethyl-5-(5-((5-oxo-2-thioxoimidazolidin-4-ylidene)methyl)thiophen-2-yl)isoindolin-1-one] | 3210 | 67 ± 6.1 | 90 ± 4 | 74 ± 8.3 | ≤ 2.5 | 1.32 | – | – | – | – | – | – | – | – | – | –
O=C1NC(=S)N/C1=C/c1ccc(-c2ccc3c(c2)CCNC3=O)s1 [compound 167] | 1140 | – | – | – | ≤ 2.5 | – | 34 ± 6.4 | 51 ± 4.2 | 81 ± 5.3 | 83 ± 4.6 | 82 ± 3.6 | 38 ± 7.8 | lack of NK toxicity | 40 | 60 | 0.53
